Measurements published in ChEMBL document CHEMBL1158035, “Actinomycins with altered threonine units in the beta-peptidolactone” (2006).
Where “and” joins values, the source holds several entries; their conditions need not be identical. Equal values may be shown once. Numbered stars: 1 amine (or outer) side, 2 acyl side, 3 side chain; on linkers, the order of the positions; unused ones are H or OH. Bridge positions count the residues as written; N and C are the ends. Square brackets hold non-standard residues; d marks the D form. Peptide text beside a SMILES is read from it. I, II: the chains in the order shown. Actinocin(1to9) = Cc1c2oc3c(C)ccc(C(=O)[*:2])c3nc-2c(C(=O)[*:1])c(N)c1=O; NMeV = CN[C@H](C(=O)O)C(C)C; Sar = CNCC(=O)O

Tests used:
[1] = (§1) Cytotoxicity against human Hep G2 cells; assay type: functional, HepG2
[2] = tested on: Bacillus subtilis; test: Antimicrobial activity against Bacillus subtilis at 50 ug after 24 hrs by disk diffusion method; assay type: functional; settings: read-out: IZ
[3] = tested on: Staphylococcus aureus; test: Antimicrobial activity against Staphylococcus aureus at 50 ug after 24 hrs by disk diffusion method; assay type: functional; settings: read-out: IZ
[4] = tested on: Escherichia coli; test: Antimicrobial activity against Escherichia coli at 50 ug after 24 hrs by disk diffusion method; assay type: functional; settings: read-out: IZ
[5] = as §1; assay type: functional; settings: HepG2
[6] = Cytotoxicity against human HM02 cells; assay type: functional

SMILES | TGI [1] | zone of inhibition at 50 µg/disc [2] | zone of inhibition at 50 µg/disc [3] | zone of inhibition at 50 µg/disc [4] | GI50 [5] | TGI [5] | TGI [6] | TGI ([6]; Homo sapiens, HM02) | GI50 ([1]; Homo sapiens, HepG2) | TGI ([1]; Homo sapiens, HepG2) | GI50 ([6]; Homo sapiens, HM02)
Cc1c2oc3c(C)ccc(C(=O)N[C@@H]4C(=O)N[C@H](C(C)C)C(=O)N5[C@H](C(=O)N(C)CC(=O)N(C)[C@@H](C(C)C)C(=O)O[C@@H]4C)[C@@H](O)C[C@@H]5C)c3nc-2c(C(=O)OC[C@H](O)[C@@H]2NC(=O)[C@H](C)N(C)C(=O)CN(C)C(=O)[C@@H]3CCCN3C(=O)[C@@H](C(C)C)NC2=O)c(N)c1=O [ACTINOMYCIN G6] | 1600 nM and > 7900 nM | 0 mm | 0 mm | 0 mm | 1400 nM | 4600 nM | 2000 nM | 1000 nM |  |  | 
Cc1c2oc3c(C)ccc(C(=O)N[C@@H]4C(=O)N[C@H](C(C)C)C(=O)N5[C@H](C(=O)N(C)CC(=O)N(C)[C@@H](C(C)C)C(=O)O[C@@H]4C)[C@@H](O)C[C@@H]5C)c3nc-2c(C(=O)N[C@@H]2C(=O)N[C@H](C(C)C)C(=O)N3CCC[C@H]3C(=O)N(C)CC(=O)N(C)[C@@H](C)C(=O)O[C@@H]2CCl)c(N)c1=O [ACTINOMYCIN G2] |  | 45 mm | 27 mm | 15 mm | 3.9 nM | 12 nM |  | 4.3 nM | 2.9 nM | 18 nM | 1.3 nM
Cc1c2oc3c(C)ccc(C(=O)N[C@@H]4C(=O)N[C@H](C(C)C)C(=O)N5[C@H](C(=O)N(C)CC(=O)N(C)[C@@H](C(C)C)C(=O)O[C@@H]4C)[C@@H](O)C[C@@H]5C)c3nc-2c2c(c1=O)OC[C@H]1OC(=O)[C@H](C)N(C)C(=O)CN(C)C(=O)[C@@H]3CCCN3C(=O)[C@@H](C(C)C)NC(=O)[C@H]1NC2=O [ACTINOMYCIN G5] |  | 20 mm | 10 mm | 0 mm | 1400 nM | 2500 nM |  | 4400 nM | 2700 nM | 7800 nM | 2100 nM
Nc1cc2nc3ccccc3oc-2cc1=O |  |  |  |  | 610 nM | 2000 nM |  | 10000 nM | 6600 nM | 26000 nM | 4450 nM
Cc1c2oc3c(C)ccc(C(=O)N[C@@H]4C(=O)N[C@H](C(C)C)C(=O)N5[C@H](C(=O)N(C)CC(=O)N(C)[C@@H](C(C)C)C(=O)O[C@@H]4C)[C@@H](O)C[C@@H]5C)c3nc-2c(C(=O)N[C@@H]2C(=O)N[C@H](C(C)C)C(=O)N3CCC[C@H]3C(=O)N(C)CC(=O)N(C)[C@@H](C)C(=O)O[C@@H]2C)c(N)c1=O [ACTINOMYCIN G4] |  |  |  |  | 400 nM | 1500 nM |  | 520 nM | 640 nM | 1400 nM | 65 nM
Cc1c2oc3c(C)ccc(C(=O)N[C@@H]4C(=O)N[C@H](C(C)C)C(=O)N5[C@H](C(=O)N(C)CC(=O)N(C)[C@@H](C(C)C)C(=O)O[C@@H]4C)[C@@H](O)C[C@@H]5C)c3nc-2c(C(=O)N[C@@H]2C(=O)N[C@H](C(C)C)C(=O)N3CCC[C@H]3C(=O)N(C)CC(=O)N(C)[C@@H](C)C(=O)O[C@@H]2CO)c(N)c1=O [ACTINOMYCIN G3] |  | 33 mm | 21 mm | 0 mm | 460 nM | 1600 nM |  | 550 nM | 1100 nM | > 7900 nM | 130 nM
Cc1c2oc3c(C)ccc(C(=O)N[C@@H]4C(=O)N[C@H](C(C)C)C(=O)N5CCC[C@H]5C(=O)N(C)CC(=O)N(C)[C@@H](C(C)C)C(=O)O[C@@H]4C)c3nc-2c(C(=O)N[C@@H]2C(=O)N[C@H](C(C)C)C(=O)N3CCC[C@H]3C(=O)N(C)CC(=O)N(C)[C@@H](C(C)C)C(=O)O[C@@H]2C)c(N)c1=O [DACTINOMYCIN] (I: T[dV]P[Sar][NMeV] / II: T[dV]P[Sar][NMeV]; ester I:1-I:C, II:1-II:C; linker I:N-II:N via Actinocin(1to9)) |  | 55 mm | 30 mm | 20 mm | 1.9 nM | 8.8 nM |  | 6.4 nM | 1.2 nM | 52 nM | 1.6 nM
